# Data from PMC12631873 (Advanced Science, 2025).
# Square brackets hold non-standard residues; d marks the D form. Peptide text beside a SMILES is read from it. * marks the point of attachment. X1 = CN1/C(=C/C=C/C=C/C2=[N+](CCCCCC(=O)*)c3ccc(S(=O)(=O)[O-])cc3C2(C)C)C(C)(C)c2cc(S(=O)(=O)O)ccc21; Hyp = O=C(O)[C@@H]1C[C@@H](O)CN1; Nlys = NCCCCNCC(=O)O; Ahx = NCCCCCC(=O)O
# What was measured:
# [1] = Serum stability test (HPLC); format: in vitro ADME, mouse; conditions: 37 °C; for HPLC chromatogram after 48 h of serum incubation: 25% mouse serum, 48 h vs 10 min; for HPLC chromatogram after 48 h of serum incubation / HPLC peak shape and elution time after 24 h of serum incubation: HPLC 646 nm; for HPLC chromatogram after 48 h of serum incubation / metabolised at 24 h / degradation in serum (in words): n = 3; for metabolised at 24 h: 25% v/v mouse serum in 1× PBS, 10 nmol probe, peak area normalized to 10 min, read-out: percent of the peptides proteolyzed after 24 h of serum incubation; for metabolised at 24 h / degradation in serum (in words): HPLC UV 646 nm; for degradation in serum (in words): 25% v/v mouse serum, 24 h and even after 48 h; for HPLC peak shape and elution time after 24 h of serum incubation: mouse serum
# Protocol: Cy5‐labeled peptidomimetic probes (10 nmol) were incubated in 25% v/v mouse serum (Biosharp, BL1053A diluted in 1× PBS) at 37 °C. Aliquots (200 µL) were taken periodically at 0 (deadtime: ≈10 min), 2, 24, and 48 h, and added to 400 µL of 3.75% trichloroacetic acid in acetonitrile at 4 °C. Then, all samples were centrifuged to remove the precipitated serum proteins at 13800 g for 10 min at 4 °C. The supernatant (150 µL) was taken to mix with 550 µL of water (with 0.1% TFA) to centrifuge again at 2630 g for 5 min at 4 °C. Five microliter of the supernatant was mixed with 200 µL of water containing 0.1% TFA as the final samples for HPLC analysis at room temperature monitored by absorbance at 646 nm with the integral area of the intact fraction recorded. The peak area for the 10 min time point was designated as 100% intact, and each peak area at successive time points was normalized to the 10 min peak to calculate the percent compound remaining. All the experiments were repeated three times.
# [2] = Organ fluorescence 2 h post-injection (clearance route); format: in vivo, mouse; conditions: nude mice, organs isolated 2 h post i.v. injection of 1 nmol
# Protocol: (§1) Typically, the fluorescence peptides or peptoids were prepared at a dose of 1 nmol (10 µM in 100 µL of 1× PBS buffer) and injected into the tail vein of each mouse 2 h prior to fluorescence imaging with an IVIS Spectrum imager (PerkinElmer Lumina III). For Figure 4, Figures S17 and S18 (Supporting Information) (joint aging and RA) and Figure S27 (Supporting Information), 2 nmol of Cy5‐(NlysO)7 (20 µM in 100 µL of 1× PBS buffer) were i.v. administered to each mouse. For 1‐week‐old neonatal mice, 1 nmol of Cy5‐(NlysO)7 (20 µM in 50 µL of 1× PBS buffer) was intravenously injected into each mouse. All in vivo imaging was performed 2 h post probe injection with the IVIS Spectrum imager (PerkinElmer, fluorescence: ex/em: 620/670 nm, exposure: 1 s, bing: 4, F/Stop: 2; field of view: A/B/C/Z). Mice were anesthesia with 3% isoflurane (RWD, R510‐22‐10) during image acquisition. Hair in the knee areas was removed before fluorescence imaging for mice in Figure 4a and Figure S17 (Supporting Information). The mice were euthanized following the final image acquisition and occasionally imaged again after skin and organ removal. Next, the airways, ankles, ears, paws, knees, tails, spines, and chest ribs were collected, imaged, and saved for subsequent histology analysis. All acquired fluorescence images were analyzed using the Living Image software (PerkinElmer). The fluorescence signal from each specimen was measured by quantifying the average radiation efficiency within the selected oval‐shaped regions‐of‐interest.
# [3] = Routine (whole) blood tests after repeated dosing; format: in vivo, mouse; conditions: C57BL/6J mice, 3 weekly i.v. doses of 2 nmol over 14 days, n = 5
# Protocol: Whole blood tests: Each C57BL/6J mouse (6–8 weeks old) was intravenously injected with 100 µL of PBS buffer or with each peptide or peptoid probe (2 nmol in 100 µL 1× PBS buffer per mouse) on days 0, 7, and 14. The mice were sacrificed on day 15, 24 h after the final injection. The heart, liver, spleen, lungs, and kidneys were collected from each mouse and processed into formalin‐fixed paraffin‐embedded sections for histological evaluation with H&E staining. Whole blood was collected. Both H&E and blood sample analyses were performed by Wuhan Servicebio.
# [4] = tested on: cartilage; assay: In vivo and ex vivo fluorescence imaging of cartilage uptake and retention in nude mice; design: species or system mouse; conditions: 1 nmol i.v., 0-96 h
# From the text: All procedures for mouse maintenance and experiments strictly followed the policy of the Experimental Animal Ethics Committee of the Fifth Affiliated Hospital of Sun Yat‐sen University (protocol numbers: 00361, 00436). Balb/c nu mice (male, 10‐18 weeks old) were used for the general in vivo imaging experiments (Figure 3c–f; Figures S10–S14, Supporting Information). For Figure 3g,h and Figure S16 (Supporting Information), neonatal Balb/c mice (7 days old) were used. Female Balb/c mice (74 weeks old versus 12 weeks old) were used in the aged joint imaging experiment reported in Figure 4a–c and Figure S17 (Supporting Information). The RA model was made using female Balb/c mice (6‐8 weeks old) by intraperitoneal injection of an anti‐collagen antibody cocktail (1.5 mg per mouse; Chondrex, 53100) followed by selective subcutaneous injection of lipopolysaccharide (LPS, 12.5 µg per mouse, Chondrex, 53100) into the left hind paw three days later.^[ [30] ^] C57BL/6J mice (male, 6–8 weeks old) were used for the biocompatibility tests (Figures S23–S25, Supporting Information).
# as §1
# For the cartilage retention experiments (Figures S11 and S12, Supporting Information), Cy5‐(NlysO)7 (10 µM in 100 µL of 1× PBS buffer) was administered via tail vein to four male Balb/c nu mice (10 weeks old) at 2, 24, 48, and 96 h respectively, prior to fluorescence imaging using an IVIS Spectrum imaging system (ex/em: 620/670 nm, exposure: 1 s, bing: 4, F/Stop: 2). Following euthanasia, their cartilaginous tissues were harvested and imaged. The fluorescence images were analyzed and quantified as described above.
# [5] = 25% v/v mouse serum (Biosharp, BL1053A diluted in 1× PBS); conditions: 37 °C, up to 48 h
Compound,clearance route from organ fluorescence [2],routine blood analyses vs PBS control group [3],in vivo retention in joints and ribs compared to peptide sequences Cy5-(GKO)7 and Cy5-R8 [4],HPLC peak shape and elution time after 24 h of serum incubation [1],serum stability (degradation in mouse serum) [5],further results
CN1/C(=C/C=C/C=C/C2=[N+](CCCCCC(=O)NCCCCCC(=O)NCC(=O)N[C@@H](CCCCN)C(=O)N3C[C@H](O)C[C@H]3C(=O)NCC(=O)N[C@@H](CCCCN)C(=O)N3C[C@H](O)C[C@H]3C(=O)NCC(=O)N[C@@H](CCCCN)C(=O)N3C[C@H](O)C[C@H]3C(=O)NCC(=O)N[C@@H](CCCCN)C(=O)N3C[C@H](O)C[C@H]3C(=O)NCC(=O)N[C@@H](CCCCN)C(=O)N3C[C@H](O)C[C@H]3C(=O)NCC(=O)N[C@@H](CCCCN)C(=O)N3C[C@H](O)C[C@H]3C(=O)NCC(=O)N[C@@H](CCCCN)C(=O)N3C[C@H](O)C[C@H]3C(N)=O)c3ccc(S(=O)(=O)[O-])cc3C2(C)C)C(C)(C)c2cc(S(=O)(=O)O)ccc21 [Cy5‐(GKO)7] ({X1-Ahx}-GK[Hyp]GK[Hyp]GK[Hyp]GK[Hyp]GK[Hyp]GK[Hyp]GK[Hyp]-NH2),might be mainly cleared through kidneys,,,,,HPLC chromatogram after 48 h of serum incubation [1]: showed prominent peaks from peptide proteolysis; metabolised at 24 h [1]: ~25%
CN1/C(=C/C=C/C=C/C2=[N+](CCCCCC(=O)NCCCCCC(=O)NCC(=O)N(CCCCN)CC(=O)NCC(=O)N(CCCCN)CC(=O)NCC(=O)N(CCCCN)CC(=O)NCC(=O)N(CCCCN)CC(=O)NCC(=O)N(CCCCN)CC(=O)NCC(=O)N(CCCCN)CC(=O)NCC(=O)N(CCCCN)CC(N)=O)c3ccc(S(=O)(=O)[O-])cc3C2(C)C)C(C)(C)c2cc(S(=O)(=O)O)ccc21 [Cy5‐(GNlys)7] ({X1-Ahx}-G[Nlys]G[Nlys]G[Nlys]G[Nlys]G[Nlys]G[Nlys]G[Nlys]-NH2),may be cleared by the ki dneys and liver,None of the measurements,stronger retention in the joints and ribs in vivo,No significant changes in peak shape and elusion time were noted,,degradation in serum (in words) [1]: hardly degraded
CN1/C(=C/C=C/C=C/C2=[N+](CCCCCC(=O)NCCCCCC(=O)NCC(=O)N(CCCCN)CC(=O)N3C[C@H](O)C[C@H]3C(=O)NCC(=O)N(CCCCN)CC(=O)N3C[C@H](O)C[C@H]3C(=O)NCC(=O)N(CCCCN)CC(=O)N3C[C@H](O)C[C@H]3C(=O)NCC(=O)N(CCCCN)CC(=O)N3C[C@H](O)C[C@H]3C(=O)NCC(=O)N(CCCCN)CC(=O)N3C[C@H](O)C[C@H]3C(=O)NCC(=O)N(CCCCN)CC(=O)N3C[C@H](O)C[C@H]3C(=O)NCC(=O)N(CCCCN)CC(=O)N3C[C@H](O)C[C@H]3C(N)=O)c3ccc(S(=O)(=O)[O-])cc3C2(C)C)C(C)(C)c2cc(S(=O)(=O)O)ccc21 [Cy5‐(GNlysO)7] ({X1-Ahx}-G[Nlys][Hyp]G[Nlys][Hyp]G[Nlys][Hyp]G[Nlys][Hyp]G[Nlys][Hyp]G[Nlys][Hyp]G[Nlys][Hyp]-NH2),might be mainly cleared through kidneys,None of the measurements,stronger retention in the joints and ribs in vivo,No significant changes in peak shape and elusion time were noted,,degradation in serum (in words) [1]: hardly degraded
CN1/C(=C/C=C/C=C/C2=[N+](CCCCCC(=O)NCCCCCC(=O)NCC(=O)N3C[C@H](O)C[C@H]3C(=O)NCC(=O)N3C[C@H](O)C[C@H]3C(=O)NCC(=O)N3C[C@H](O)C[C@H]3C(=O)NCC(=O)N3C[C@H](O)C[C@H]3C(=O)NCC(=O)N3C[C@H](O)C[C@H]3C(=O)NCC(=O)N3C[C@H](O)C[C@H]3C(=O)NCC(=O)N3C[C@H](O)C[C@H]3C(N)=O)c3ccc(S(=O)(=O)[O-])cc3C2(C)C)C(C)(C)c2cc(S(=O)(=O)O)ccc21 [Cy5‐(GO)7] ({X1-Ahx}-G[Hyp]G[Hyp]G[Hyp]G[Hyp]G[Hyp]G[Hyp]G[Hyp]-NH2),,,,,,HPLC chromatogram after 48 h of serum incubation [1]: showed prominent peaks from peptide proteolysis; metabolised at 24 h [1]: ~25%
CN1/C(=C/C=C/C=C/C2=[N+](CCCCCC(=O)NCCCCCC(=O)N(CCCCN)CC(=O)N(CCCCN)CC(=O)N(CCCCN)CC(=O)N(CCCCN)CC(=O)N(CCCCN)CC(=O)N(CCCCN)CC(=O)N(CCCCN)CC(N)=O)c3ccc(S(=O)(=O)[O-])cc3C2(C)C)C(C)(C)c2cc(S(=O)(=O)O)ccc21 [Cy5‐Nlys7] ({X1-Ahx}-[Nlys][Nlys][Nlys][Nlys][Nlys][Nlys][Nlys]-NH2),may be cleared by the ki dneys and liver,None of the measurements,stronger retention in the joints and ribs in vivo,No significant changes in peak shape and elusion time were noted,,
Cy5‐(GNlys)7,,,,,hardly degraded in the serum even after 48 h,
Cy5‐(GNlysO)7,,,,,hardly degraded in the serum even after 48 h,
Cy5‐(NlysO)7,,,,,hardly degraded in the serum even after 48 h,
Cy5‐Nlys7,,,,,No significant changes in peak shape and elution time even post 48 h,
